# From patent US10322111B2, “Chemokine receptor binding heterocyclic compounds with enhanced efficacy” (Genzyme Corporation, priority 2001, dated 2019)
# Read-outs that look alike come from different tables or passages of the source.
# System: CD34 positive progenitor cells
smiles,measurement,setting,value
"c1cc(CN2CCCNCCNCCCNCC2)ccc1CN1CCCNCCNCCCNCC1 [AMD3100, 1,1′-[1,4-phenylene-bis(methylene)]-bis-1,4,8,11-tetraazacyclotetradecane]",time post-administration at which elevation of CD34 positive progenitor cells maximized,"human volunteers, 80 μg/kg s.c.",6 h
same,CD34 positive cells,"volunteer P1, 1 Hr after 80 μg/kg s.c.",.04 percentage of the total WBC's
same,CD34 positive cells,"volunteer P1, 3 Hr after 80 μg/kg s.c.",.07 percentage of the total WBC's
same,CD34 positive cells,"volunteer P1, 6 Hr after 80 μg/kg s.c.",.11 percentage of the total WBC's
same,CD34 positive cells,"volunteer P1, 9 Hr after 80 μg/kg s.c.",.11 percentage of the total WBC's
same,CD34 positive cells,"volunteer P1, Day 2 after 80 μg/kg s.c.",.08 percentage of the total WBC's
same,CD34 positive cells,"volunteer P2, 1 Hr after 80 μg/kg s.c.",.06 percentage of the total WBC's
same,CD34 positive cells,"volunteer P2, 3 Hr after 80 μg/kg s.c.",.08 percentage of the total WBC's
same,CD34 positive cells,"volunteer P2, 6 Hr after 80 μg/kg s.c.",.13 percentage of the total WBC's
same,CD34 positive cells,"volunteer P2, 9 Hr after 80 μg/kg s.c.",.11 percentage of the total WBC's
same,CD34 positive cells,"volunteer P2, Day 2 after 80 μg/kg s.c.",.12 percentage of the total WBC's
same,CD34 positive cells,"volunteer P3, 1 Hr after 80 μg/kg s.c.",.16 percentage of the total WBC's
same,CD34 positive cells,"volunteer P3, 3 Hr after 80 μg/kg s.c.",.06 percentage of the total WBC's
same,CD34 positive cells,"volunteer P3, 9 Hr after 80 μg/kg s.c.",.11 percentage of the total WBC's
same,CD34 positive cells,"volunteer P3, Day 2 after 80 μg/kg s.c.",.07 percentage of the total WBC's
same,CD34 positive cells,"volunteer P4, 1 Hr after 80 μg/kg s.c.",.07 percentage of the total WBC's
same,CD34 positive cells,"volunteer P4, 3 Hr after 80 μg/kg s.c.",.09 percentage of the total WBC's
same,CD34 positive cells,"volunteer P4, 6 Hr after 80 μg/kg s.c.",.09 percentage of the total WBC's
same,CD34 positive cells,"volunteer P4, 9 Hr after 80 μg/kg s.c.",.1 percentage of the total WBC's
same,CD34 positive cells,"volunteer P4, Day 2 after 80 μg/kg s.c.",.1 percentage of the total WBC's
same,CD34 positive cells,"volunteer P5, 1 Hr after 80 μg/kg s.c.",.12 percentage of the total WBC's
same,CD34 positive cells,"volunteer P5, 3 Hr after 80 μg/kg s.c.",.13 percentage of the total WBC's
same,CD34 positive cells,"volunteer P5, 6 Hr after 80 μg/kg s.c.",.2 percentage of the total WBC's
same,CD34 positive cells,"volunteer P5, 9 Hr after 80 μg/kg s.c.",.2 percentage of the total WBC's
same,CD34 positive cells,"volunteer P5, Day 2 after 80 μg/kg s.c.",.16 percentage of the total WBC's
